ChEMBL document CHEMBL3507680, “University of Dundee, Gates Library screen for HepG2 cell viability”

Assay: Human HepG2 cell viability assay in 384 well format
Format: toxicity, cell-based
Set-up: dose 125 nL, time 70.5 hour; concentration not given beside the values
Conditions: HepG2 cells, read-out: Inhibition

SMILES | cytotoxicity at 70.5 h [%]
COCCN1C(=O)[C@H]2CC[C@@H]1CN(c1ncccn1)C2 | 11.5
CN1CCCCCC1C(=O)N1CCCN(c2ccccc2)CC1 (centres undefined) | 4.68
COc1cccc(CCC2CCCN(C(=O)c3cnccn3)C2)c1 (centres undefined) | -7.12
Cc1cc(C(=O)N2CCC3(CCNCC3)CC2)c2cccc(C)c2n1 | 43.8
CCc1nc(C)c([C@H]2CN(C)C[C@@H]2C(=O)Nc2ccccc2F)[nH]1 | -13.9
Cc1ccc(CCNc2ncnc3sc4c(c23)CCNC4)o1 | -8.67
Cc1cc(-n2cccn2)ccc1CN1CCOCC(CN(C)C)C1 (centres undefined) | 27.5
O=C(O)CSc1nnc(-c2ccn[nH]2)n1-c1ccccc1Cl | -6.93
Cn1ncc2c(N[C@H]3CC[C@@H](N)CC3)nc(C(C)(C)C)nc21 | 6.09
CN(CC1(O)CCCN(Cc2cccc(F)c2F)C1=O)C1CCCCC1 (centres undefined) | -0.975
O=C(c1ccc(O)cn1)N1CCOC(Cc2cccc(C(F)(F)F)c2)C1 (centres undefined) | 22.6
Cc1cc(N2CCCN(Cc3ccc(C)o3)CC2)ccn1 | -3.18
CN(C)CCNc1ccc(-c2nc(-c3ccccc3F)no2)cn1 | 0.837
CN(C)C(C(=O)NCCn1cccc1)c1cccc(F)c1 (centres undefined) | -4.48
COCCCN1CC2(CCN(C(=O)c3ncc(F)cc3F)CC2)CC1=O | -9.33
CC1(C)OC(=O)N(CC(=O)N2CCC(c3ccccc3Cl)C2)C1=O (centres undefined) | -6.23
CCC[C@@H]1CN(c2ncnc3sccc23)C[C@H]1NS(C)(=O)=O | -4.58
COc1cccc([C@H]2CN(C(=O)c3cc(C)on3)C[C@@H]2N)c1 | -10.9
CSCc1ccc(N(C)CC2CCCN(C(C)C)C2)nc1 (centres undefined) | -2.8
O=C(C1CC1)N1CCCN(c2ncnc3c2CCNCC3)CC1 | -6.41
CC(C)[C@@H]1CN(C(=O)C2(c3ccccc3)CCN(C)CC2)C[C@H]1C(=O)O | -5.2
CCCSc1ccccc1NC(=O)N1CCN(C(=O)c2ccc[nH]2)CC1 | -1.4

SMILES | cytotoxicity at 70.5 h [%]
CCN(Cc1cnn(C)c1)C[C@H]1CC[C@@H](Cc2ccc(CO)cc2)O1 | -3.31
CN1C(=O)[C@H]2CC[C@@H]1CN(c1ncnc3ccsc13)C2 | 11.8
Cn1ncc2c(NCCn3cccc3)nc(C3CCCC3)nc21 | -5.71
COc1ccc(CC(=O)N2CCCC(Cn3cc(CN)nn3)C2)cc1 (centres undefined) | -4.47
CCCN1CCCn2nc(CNC(=O)C3CCOC3)cc2C1 (centres undefined) | -2.94
COCCN(C)CC(=O)N1C[C@@H](C)[C@](O)(C(C)C)C1 | -1.28
CCN(CC)C(=O)c1ccc(Cl)c(NC(=O)c2csnn2)c1 | -10.1
Cc1cnccc1N1CCN(C[C@]2(O)CCCN3CCCC[C@@H]32)CC1 | 4.29
CC(C)n1cnnc1CN(C)Cc1ccc(CN(C)S(C)(=O)=O)o1 | -2.72
COCC(=O)N(Cc1cccnc1)CC1CCCN(C2CCCCC2)C1 (centres undefined) | -5.51
Cc1ncc(C(=O)N2CCCCC2c2nc3cc(F)ccc3[nH]2)c(O)n1 (centres undefined) | -20
O=C(CCc1cc2n(n1)CCCN(C(=O)c1ccncc1)C2)NC1CC1 | -6.73
CCCOc1cc(Cl)c(CN2CCNC(C(=O)NC3CC3)C2)cc1OC (centres undefined) | -10.6
COc1ccc2c(c1)CC(NCCCn1nc(C)nc1C)CC2 (centres undefined) | -9.14
CCCc1nnc(NC(C)c2ccc(F)cc2)o1 (centres undefined) | -8.69
CC(C)CC(O)C1CCN(Cc2ccc(N(C)C)nc2)CC1 (centres undefined) | 23.2
CCCn1ccnc1CN1CCCC(O)(CN(C)C)CC1 (centres undefined) | -3.55
COc1ccc(C(C(=O)O)N2CCC(Cn3cccn3)CC2)cc1F (centres undefined) | 22.7
Cc1nn(CCN2CCSCC2)cc1CNCc1ccccn1 | -5.69
O=C(c1ccc(=O)[nH]c1)N1CCC(Oc2cccc(C(F)(F)F)c2)CC1 | 3.69
COCC1(Nc2nc(C)nc3c2cnn3C)CCCC1 | 3.28
Cn1ncc(N2CCN(Cc3ccc(S(C)(=O)=O)cc3)CC2)cc1=O | -5.42

SMILES | cytotoxicity at 70.5 h [%]
CC(=O)N1CCc2c(nc(N(C)C)nc2N(C)CCCC2CCCO2)C1 (centres undefined) | 10.7
COCCNS(=O)(=O)c1cccc2c1CN(C(=O)c1cnccn1)CC2 | -3.11
C[C@@H]1CN(C2CCN(c3ccccc3F)CC2)C[C@]1(C)O | -6.48
Cn1c(-c2ccccc2Cl)nc2cc(C(=O)NCC3(CO)CC3)cnc21 | -10
COC(=O)C(C)(C)NC(=O)c1cc(COc2ccccc2OC)[nH]n1 | 10.6
OCC1(O)CCN(Cc2ccc(C3CCCCO3)o2)CC1 (centres undefined) | -1.61
O=C(NCCC1COc2ccccc2O1)c1ccc(-c2cc[nH]n2)nc1 (centres undefined) | -4.68
CCC[C@H]1CN(S(C)(=O)=O)C[C@@H]1NC(=O)COC(C)C | -5.47
COc1ccc(F)c(-c2ncccc2C(=O)N2C[C@H]3CC[C@@H]2C3)c1 | -9.45
Cc1ccc(C(=O)O)cc1CNC(=O)CN1CC[C@](C)(O)C(C)(C)C1 | -6.88
Cc1ccsc1-c1nccn1CCS(=O)(=O)N1CCCC1 | 8.18
Cc1ccc(C(=O)N2CCCC(Cn3cc(C(C)(C)N)nn3)C2)s1 (centres undefined) | -4.81
O=C(Cc1ccccc1C(F)(F)F)N1CCC2(CC1)[C@H](O)C[C@@H]2O | -6.88
O=c1cc(N2CCNCC2)cnn1CCc1ccc(F)cc1 | -4.81
Cc1ccc(C)c(-n2cc(CN3CC[C@@H](O)C3)c(-c3ccccc3)n2)c1 | -0.782
O=C1CN(Cc2cn(C3CCN(C4CSCCSC4)CC3)nn2)CCN1 | -13.2
CN1[C@H](CO)C[C@H](CNCc2ccc(Cl)c(F)c2)[C@@H]1c1ccccc1F | -3.08
COCCn1cnnc1C(C)NC(=O)c1[nH]c2c(C)cc(C)cc2c1C (centres undefined) | 14
CCCC(=O)N(Cc1ccncc1)C(C)CC (centres undefined) | -6.83
Cc1cc(C)c2nc(C)cc(C(=O)NC(C)c3nnn[nH]3)c2c1 (centres undefined) | 6.58
CC(C)[C@H]1CN(c2cnccn2)C[C@@H]1NC(=O)C1(C#N)CCOCC1 | -6.21
CN1CCN(C(=O)c2ccnc(N3CCOC(C(F)(F)F)C3)c2)CC1 (centres undefined) | 19

SMILES | cytotoxicity at 70.5 h [%]
CCc1nccn1CCC(=O)N1CC[C@@H](c2ccc(F)cc2)[C@H](O)C1 | -12.3
CC(C)(C)c1ccn(C2(C(=O)O)CCN(c3ccnc(N)n3)CC2)n1 | -3.43
CCC(=O)c1ccc(OCC(=O)NC(C)c2nnn[nH]2)cc1 (centres undefined) | -0.478
Cc1cc(C(=O)NC(C)c2nnn[nH]2)c2ccc(C)c(C)c2n1 (centres undefined) | 34.8
CSc1ccc(C(=O)N2CCCC(Nc3ccc(F)cc3)C2)cc1 (centres undefined) | -0.171
O=C1CC[C@H]2CN(Cc3cccc(F)c3)CC[C@H]2N1CCc1c[nH]cn1 | -2.79
Clc1cc(NCc2nccs2)nc2[nH]ccc12 | -30.7
O=C(NC[C@H]1CCCN1)c1cc(COc2cccc(C(F)(F)F)c2)[nH]n1 | -2.98
O=C(c1cccc2ccnn12)N1CCCC1Cn1cccn1 (centres undefined) | -2.56
Cc1cc(C(=O)N[C@H]2COC[C@@H]2N2CCOCC2)c2ccc(F)cc2n1 | -8.8
OC1(CN2CCCCC2)CCN(Cc2c[nH]c(CC3CCCC3)n2)C1 (centres undefined) | -8.48
CN(C)C(=O)c1cccnc1-c1ccc2c(c1)OCCO2 | -18.6
COCc1ccc(C(=O)N2CCCN(c3ccc(F)cc3)CC2)s1 | 5.91
Cc1cc2nc(C(C)C)cc(NC(C)c3nncn3C)n2n1 (centres undefined) | -17.3
CCN(Cc1cnn(C)c1)C[C@H]1CC[C@@H](Cc2cccc(C#N)c2)O1 | -5.55
CC(=O)N1CCC(N2CCN(Cc3ccc(C)o3)C(CCO)C2)CC1 (centres undefined) | -6.87
COc1cccn(C(C)C(=O)NC2CCCC2)c1=O (centres undefined) | -1.93
CCc1nc(C)c(-c2nccn2CC2CCN(C3CCCC3)CC2)[nH]1 | -2.56
CC(C)(C)C(=O)NCCC1CN(Cc2ccccc2F)CCO1 (centres undefined) | -9.52
CC(CN1CC[C@@H]2CCCC[C@@H]2C1)n1cnc2ccccc21 (some centres undefined) | 21.4
Cc1ncc(S(C)(=O)=O)c(N(C)CCCc2cnn(C)c2)n1 | -3.73
Cc1nc(C(F)(F)F)nc(N2CCC3(CC2)CC(C(=O)O)N(C)C3)c1C (centres undefined) | -5.6

SMILES | cytotoxicity at 70.5 h [%]
c1coc(-c2nc3c(c(N4CCCN5CCC[C@H]5C4)n2)CCNCC3)c1 | -2.19
Cc1ccsc1-c1nccn1C1CC(=O)N(C(C)C)C1 (centres undefined) | -5.72
CN(C)CC1(O)CCCN(C(=O)Cc2ccc(Cl)c(Cl)c2)C1 (centres undefined) | -2.73
FC(F)(F)C1CN(Cc2cccc(-c3ccccn3)c2)CCO1 (centres undefined) | -6.31
CNc1cc(C)nc(N2CCC3(CC2)[C@H](O)C[C@@H]3O)n1 | -6.92
Cn1ccnc1CN1CCC(CNS(=O)(=O)c2cccnc2)C1 (centres undefined) | 7.54
CCn1ccnc1C1CCN(c2ncnc3ccsc23)CC1 | 7.55
COc1ccc(/C=C/CN2CCN(c3nccnc3C)CC2)cc1 | -5.85
Cc1ccsc1-c1nc(CN(C)Cc2cc[nH]n2)c(C)o1 | 12.8
Cc1ccnc(CC(C)N(C)Cc2ccc3c(c2)OCCO3)c1 (centres undefined) | -0.147
N#Cc1nccnc1N1CCN(CCOCc2ccccc2)CC1 | 16.9
Cc1[nH]c(=O)[nH]c(=O)c1CC(=O)N1CCCN(CC2CC2)C(C(C)C)C1 (centres undefined) | 0.527
COc1cc(N(C)Cc2cccc(-n3cccn3)c2)nc(N)n1 | -1.55
Cc1ccc(C(=O)N2C[C@@H]3CC[C@H](C2)N(Cc2ccccc2)C3)cn1 | 17.8
Cc1ccc(CN2CC[C@@]3(O)CCN(S(=O)(=O)N(C)C)C[C@H]3C2)cc1C | -16
CCCn1ncc(C(=O)N(CCOC)Cc2c(C)nn(CC)c2C)c1C | -7.73
Cc1nn2c(N3CCC(C(N)=O)CC3)cc(-c3ccccc3)nc2c1C | -2.04
CCn1ccnc1CN1CCC(Oc2ccccc2F)(C(=O)O)CC1 | -0.995
Nc1ccc(CC2COc3ccccc3C2)cn1 (centres undefined) | -5.61
CC(O)CN1CC2(CCC1=O)CCN(Cc1cc(F)ccc1Cl)CC2 (centres undefined) | -2.56
Cc1cc(N2CCC(n3cc(CCCO)nn3)CC2)ccn1 | -9.19
